The numbers were not newly measured in patent US20040253299A1, “Transdermal therapeutic system (reservoir-tts) for using pramipexole and ropinirole” (priority 2001, published 2004), which cites them from elsewhere.

The conditions of the data set: administered orally.

As for `CCCN(CCC)CCc1cccc2c1CC(=O)N2` [Ropinirole, 4-(2-di-n-propylaminoethyl)-2-(3H)-indolone], the bioavailability is given as 50%. As for `CCCNC1CCc2nc(N)sc2C1` (centres unmarked) [pramipexole, 2-amino-6-n-propylamino-4,5,6,7-tetrahydrobenzothiazole], the bioavailability was 90%.
